Consider one compound from PMC7828518 (2021).

The subject of assay [1] is F21T (DNA, G4) GGGTTAGGGTTAGGGTTAGGG
As to the kind of experiment: FRET DNA melting. The note with it: K+ (10 mM KCl), Li+ (90 mM LiCl); 10 mM lithium cacodylate pH 7.3; 5 μM compound, 0.2 μM DNA.

Assay [2] has as its system F10T (DNA, hairpin, Sp18 linker joins 3' end of first TATAGCTATA to 5' end of second (one molecule)) TATAGCTATA/TATAGCTATA
The assay can be described thus: FRET DNA melting. The settings on record: Li+ (100 mM LiCl) per methods; Figure 3 legend: 10 mM KCl, 90 mM LiCl; 10 mM lithium cacodylate pH 7.3; up to 10 μM compound, 0.2 μM DNA.

The test system of assay [3] is Tel22 (DNA, G4) AGGGTTAGGGTTAGGGTTAGGG
As to the kind of experiment: circular dichroism titration. The note with it: K+ (10 mM KCl), Li+ (90 mM LiCl); 10 mM lithium cacodylate pH 7.3, 25 °C; 4 μM DNA, ratios 1:1 to 1:5.

The test system is the same in assay [4]. The assay can be described thus: equilibrium dialysis (noncompetition). The settings on record: K+ (100 mM KCl, 10 mM potassium phosphate); pH 7.2, 22 °C; apparent; per tetrad (75 μM monomeric units); 2 μM compound; per base. In general terms: Equilibrium dialysis compares concentrations on both sides of a semipermeable membrane.
Assay [5] deals with ds17 (DNA, duplex) GGGTTACTACGAACTGG/CCAGTTCGTAGTAACCC
The assay can be described thus: equilibrium dialysis (noncompetition). The note with it: K+ (100 mM KCl, 10 mM potassium phosphate), pH 7.2, 22 °C, apparent, per base pair (75 μM monomeric units), 2 μM compound.

Take `N=C(N)N/N=C/c1ccc2ccc3ccc(/C=N/NC(=N)N)nc3c2n1`: the “∆Tm” value is 7 ± 1 °C in assay [1] and ~ 0 °C in assay [2]. The binding entry in assay [3] is given as “yes”. Also, the Kapp was 2.3 ± 0.5 × 10^6 M^-1 in assay [4] and 0.029 ± 0.004 × 10^6 M^-1 in assay [5].
